Assay: solvent given as SMILES
[1] = in O=P(c1ccccc1)(c1ccccc1)c1ccccc1Oc1ccccc1P(=O)(c1ccccc1)c1ccccc1

## COc1ccc(C#Cc2cc(C#Cc3ccc(OC)cc3)c(C#Cc3ccc(OC)cc3)c(C#Cc3ccc(OC)cc3)c2C#Cc2ccc(OC)cc2)cc1
In ClCCl
  emission maximum: 437 nm

## O=c1c2ccccc2nc2ccccn12
In ClCCl
  emission maximum: 442 nm

## CC1(C)CC(/N=C/c2ccc3ccc4cccc5ccc2c3c45)CC(C)(C)N1[O]
In C1CCCCC1
  emission maximum: 385 nm
In CC#N
  emission maximum: 375 nm
In CO
  emission maximum: 400 nm
In ClC(Cl)Cl
  emission maximum: 375 nm

## N#CC(C#N)=C(/C=C/c1cc2c3c(c1)CCCN3CCC2)c1ccc2c3c(cccc13)CC2
In C1CCOC1
  emission maximum: 602 nm
In CC#N
  emission maximum: 622 nm
In CC(C)=O
  emission maximum: 619 nm
In CCOC(C)=O
  emission maximum: 600 nm
In CN(C)C=O
  emission maximum: 629 nm
In CO
  emission maximum: 613 nm
In Cc1ccccc1
  emission maximum: 580 nm
In ClC(Cl)Cl
  emission maximum: 599 nm

## CC(C)[Si](C#Cc1ccc(C#C[Si](C(C)C)(C(C)C)C(C)C)c2nc3cc4c(cc3nc12)[C@H]1c2ccccc2[C@@H]4c2ccccc21)(C(C)C)C(C)C
In CCCCCC
  emission maximum: 455 nm
In ClCCl
  emission maximum: 473 nm

## CCCCCCn1c(=O)c2c3[nH]c4ccccc4oc3c3c(=O)n(CCCCCC)c(=O)c3c2c1=O
In ClCCl
  emission maximum: 560 nm

## C[n+]1cc2ccc3c[n+](C)c4ccccc4c3c2c2ccccc21
In CC#N
  emission maximum: 504 nm

## C[SiH](C)c1cccc2ccccc12
In C1CCCCC1
  emission maximum: 328 nm

## C1=C2c3cc4ccccc4cc3C3=[N+]2[B-]2(Oc4ccccc43)Oc3ccccc3-c3c4cc5ccccc5cc4c1n32 (stereo not given)
In C1CCOC1
  emission maximum: 832 nm

## CCN(CC)c1ccc([N+]2=Cc3ccc4c5c(ccc4c3O[B-]2(c2c(F)c(F)c(F)c(F)c2F)c2c(F)c(F)c(F)c(F)c2F)C=[N+](c2ccc(N(CC)CC)cc2)[B-](c2c(F)c(F)c(F)c(F)c2F)(c2c(F)c(F)c(F)c(F)c2F)O5)cc1
In C1CCOC1
  emission maximum: 714 nm
In Cc1ccccc1
  emission maximum: 644 nm
In ClCCl
  emission maximum: 683 nm

## COc1ccc(N(c2ccc(C=C(c3ccccc3)c3ccccc3)cc2)c2ccc(C=C(c3ccccc3)c3ccccc3)cc2)cc1
In Cc1ccccc1
  emission maximum: 477 nm

## CN(C)C1=Nc2cccc3cccc1c23
In CC#N
  emission maximum: 589 nm

## CCOC(=O)c1c(-c2cc3ccc(OCC=C(C)C)cc3oc2=O)nn(-c2cccc(C)c2)c1C(=O)OCC
In ClCCl
  emission maximum: 425 nm

## N#Cc1cc(C#N)c(-n2c3ccccc3c3cc(-c4cccc5c4c4ccccc4n5-c4cc(-n5c6ccccc6c6ccccc65)c(C#N)cc4C#N)ccc32)cc1-n1c2ccccc2c2ccccc21
[1]
  emission maximum: 448 nm

## C#CCOc1ccc(C2=[N+]3C(=Nc4c(-c5ccccc5)cc(-c5ccc(O)cc5)n4[B-]3(F)F)C(c3ccccc3)=C2)cc1
In CO
  emission maximum: 716 nm
In Cc1ccccc1
  emission maximum: 711 nm
In ClC(Cl)Cl
  emission maximum: 708 nm

## C(=C\c1nc2ccccc2s1)/c1ccccc1
In C1CCCCC1
  emission maximum: 390 nm
In CO
  emission maximum: 400 nm

## N#Cc1c(-n2c3ccc(Cl)cc3c3cc(Cl)ccc32)c(C#N)c(-n2c3ccc(Cl)cc3c3cc(Cl)ccc32)c(-n2c3ccc(Cl)cc3c3cc(Cl)ccc32)c1-n1c2ccc(Cl)cc2c2cc(Cl)ccc21
In Cc1ccccc1
  emission maximum: 518 nm

## Cc1cccc(C)c1N1C(c2ccccc2)=Cc2ccc3ccccc3[n+]2[B-]1(F)F
In ClCCl
  emission maximum: 468 nm

## CCC1(CC)c2cc(/C=C/c3ccc(N(c4ccccc4)c4ccccc4)cc3)ccc2-c2ccc(/C=C/c3ccc(N(c4ccccc4)c4ccccc4)cc3)cc21
In Cc1ccccc1
  emission maximum: 451 nm

## CCCCN(CCCC)c1ccc2c#cc3cc4c#cc5ccc(N(CCCC)CCCC)cc5c#cc#cc5cc(C(F)(F)F)ccc5c#cc4cc3c#cc3ccc(C(F)(F)F)cc3c#cc#cc2c1
In ClCCl
  emission maximum: 544 nm
In c1ccccc1
  emission maximum: 501 nm

## CN(C)CCCN1c2ccccc2Sc2ccc(C(F)(F)F)cc21
In CC#N
  emission maximum: 470 nm
In CO
  emission maximum: 463 nm
In O
  emission maximum: 475 nm

## COc1ccc2cc(C3=[N+]4C(=Nc5c(-c6ccccc6)cc(-c6ccc7cc(OC)ccc7c6)n5[B-]4(F)F)C(c4ccccc4)=C3Br)ccc2c1
In ClC(Cl)Cl
  emission maximum: 728 nm
In ClCCl
  emission maximum: 728 nm

## CC1(C)c2ccccc2N(c2ccc3c(ccc4nc5ccc6cc(N7c8ccccc8C(C)(C)c8ccccc87)ccc6c5nc43)c2)c2ccccc21
In C1CCCCC1
  emission maximum: 484 nm
In C1CCOC1
  emission maximum: 661 nm
In Cc1ccccc1
  emission maximum: 552 nm
In ClCCl
  emission maximum: 699 nm

## CCN(CC)c1ccc2cc(-c3nc4cc(C(=O)Nc5ccccc5)ccc4o3)c(=O)oc2c1
In ClCCl
  emission maximum: 495 nm

## CCCCOC(=O)c1cc(Cl)c2c3c(Cl)cc4c5c(cc(Cl)c(c6c(Oc7ccc(C(=O)OC)cc7)cc(C(=O)OCCCC)c1c26)c53)C(=O)N(c1c(C(C)C)cccc1C(C)C)C4=O
In Cc1ccccc1
  emission maximum: 560 nm

## c1ccc(/C(=C(\c2ccccc2)c2ccccc2-c2ccc(-c3ccccc3)cc2)c2ccccc2-c2ccc(-c3ccccc3)cc2)cc1
In C1CCOC1
  emission maximum: 492 nm

## Nc1cc2nc3cc(F)c(F)cc3nc2cc1N
In CCO
  emission maximum: 537 nm

## c1cc2ccc3sc4ccc5cccc6c(c1)c2c3c4c56
In ClC(Cl)Cl
  emission maximum: 418 nm

## CCCCCCCCN1C(=O)c2ccc3c4c(-c5ccc6c7ccccc7n(-c7ccccc7)c6c5)cc5c6c(cc(-c7ccc8c9ccccc9n(-c9ccccc9)c8c7)c(c7ccc(c2c37)C1=O)c64)C(=O)N(CCCCCCCC)C5=O
In ClC(Cl)Cl
  emission maximum: 644 nm

## c1ccc2c(c1)oc1nc3oc4ccc(-n5c6ccccc6c6ccccc65)cc4c3cc12
In ClC(Cl)Cl
  emission maximum: 448 nm

## CCCCN(CCCC)c1ccc(C#Cc2cc(C#Cc3c(F)c(F)c(F)c(F)c3F)c(C#Cc3c(F)c(F)c(F)c(F)c3F)cc2C#Cc2ccc(N(CCCC)CCCC)cc2)cc1
In ClCCl
  emission maximum: 556 nm
In c1ccccc1
  emission maximum: 505 nm

## Cc1ccc(C2=Nc3cccc4[n+]3[B-](F)(O2)OC(c2ccc(C)cc2)=N4)cc1
In ClCCl
  emission maximum: 457 nm

## CC(C)(C)c1ccc2c(c1)c1cc(C(C)(C)C)ccc1n2-c1ccc(-c2nc3cc(C#N)c(C#N)cc3nc2-c2ccc(-n3c4ccc(C(C)(C)C)cc4c4cc(C(C)(C)C)ccc43)cc2)cc1
In Cc1ccccc1
  emission maximum: 544 nm

## CCN(CC)c1ccc(-c2nc3c4ccccc4n(C)c3nc2-c2ccc([B-](F)(c3c(C)cc(C)cc3C)c3c(C)cc(C)cc3C)cc2)cc1
In C1CCOC1
  emission maximum: 508.44 nm

## CC[N+]1(CC)CN2C(=N1)C(C(=O)O)=Cc1cc(OC)ccc12
In O
  emission maximum: 491 nm

## c1ccc(-c2ccc(-c3ccc4c(c3)CCO4)cc2)cc1
In C1CCCCC1
  emission maximum: 377 nm

## CC(C)(C)c1ccc2c(c1)c1cc(C(C)(C)C)ccc1n2-c1cccc(C(=O)c2cccc(-n3c4ccc(C(C)(C)C)cc4c4cc(C(C)(C)C)ccc43)n2)n1
In C1CCOC1
  emission maximum: 378.66 nm
In Cc1ccccc1
  emission maximum: 381.64 nm
In ClCCl
  emission maximum: 383.6 nm

## COc1ccc(-c2nc(-c3ccc(OC)cc3)n3ccccc23)cc1
In ClC(Cl)Cl
  emission maximum: 479 nm

## N#Cc1cc2ccc(O)cc2oc1=O
In C1CCCCC1
  emission maximum: 411 nm
In C1CCOC1
  emission maximum: 405 nm
In CC#N
  emission maximum: 402 nm
In CCOC(C)=O
  emission maximum: 406 nm
In CS(C)=O
  emission maximum: 401 nm
In ClC(Cl)Cl
  emission maximum: 408 nm
In O
  emission maximum: 410 nm

## CC(C)[Si](C#Cc1c2nsnc2c(C#C[Si](C(C)C)(C(C)C)C(C)C)c2nc3c(nc12)C1c2ccccc2C3c2ccccc21)(C(C)C)C(C)C
In CCCCCC
  emission maximum: 526 nm

## Cc1c2c(c(C)c3ccccc13)-c1cc3nc4ccccc4nc3cc1-2
In ClC(Cl)Cl
  emission maximum: 454 nm

## CC(C)[Si](C#Cc1c2cc3ccccc3cc2c(C#Cc2ccc(Br)cc2)c2cc3ccccc3cc12)(C(C)C)C(C)C
In ClCCl
  emission maximum: 663 nm

## F[B-]1(F)Oc2ccc3ccccc3c2-c2c3c(c4c([n+]21)CCc1ccccc1-4)CCc1ccccc1-3
In ClCCl
  emission maximum: 476 nm

## CCOC(=O)CCCCCn1c2ccc(Cl)cc2c(=O)c2cc3c(cc21)c(=O)c1cc(Cl)ccc1n3CCCCCC(=O)OCC
In CO
  emission maximum: 556 nm

## Cc1ccc(/C2=c3\cc/c(o3)=C(\c3ccc(C)cc3)c3ccc([nH]3)-c3ccc4n3[B-](F)(F)[N+]3=C(C=CC3=C4c3ccc[nH]3)c3ccc2[nH]3)cc1
In ClC(Cl)Cl
  emission maximum: 729 nm

## N#Cc1cc(-n2c3ccccc3c3ncccc32)c(-n2c3ccccc3c3ncccc32)cc1C#N
In CC#N
  emission maximum: 520.47 nm
In CCCCCC
  emission maximum: 443.72 nm
In Cc1ccccc1
  emission maximum: 450.7 nm
In ClCCl
  emission maximum: 476.51 nm
In c1cc(-n2c3ccccc3c3ccccc32)cc(-n2c3ccccc3c3ccccc32)c1
  emission maximum: 477.27 nm

## COc1ccc(C#Cc2ccc3ccc(=O)oc3c2)cc1
In CC#N
  emission maximum: 465 nm

## CC(C)(C)c1ccc(N(c2ccc(C(C)(C)C)cc2)c2ccc(S(=O)(=O)c3ccc(N(c4ccc(C(C)(C)C)cc4)c4ccc(C(C)(C)C)cc4)cc3)cc2)cc1
In Cc1ccccc1
  emission maximum: 419 nm
[1]
  emission maximum: 430 nm

## COc1cc(-c2cnc(-c3ccncc3)o2)cc(OC)c1OC
In ClCCl
  emission maximum: 465 nm

## C#CCOc1ccc(/C=C/C2=[N+]3C(=C(c4ccccc4)c4c(C)cc(C)n4[B-]3(F)F)C(C)=C2)cc1
In CO
  emission maximum: 574 nm

## Cc1ccccc1-c1ccccc1C
In C1CCCCC1
  emission maximum: 318.98 nm

## C(#Cc1cccc(C#Cc2ccc(-n3c4ccccc4c4ccccc43)cc2)c1)c1ccc(-n2c3ccccc3c3ccccc32)cc1
In CC#N
  emission maximum: 425 nm
In CCCCC
  emission maximum: 366 nm
In CO
  emission maximum: 412 nm
In Cc1ccccc1
  emission maximum: 374 nm
In ClC(Cl)Cl
  emission maximum: 368 nm
In ClCCl
  emission maximum: 394 nm

## COC(=O)C1=C(C(=O)OC)C2(c3ccccc3-c3ccccc32)[C@@H](c2ccccc2)C=C2c3cc(OC)c(OC)cc3CCN21
In ClCCl
  emission maximum: 431 nm

## COC(=O)c1nc2c(N(C)C)nc(N)nc2n1Cc1ccccc1
In C1COCCO1
  emission maximum: 391 nm
In CC#N
  emission maximum: 399 nm
In CO
  emission maximum: 420 nm
In ClCCl
  emission maximum: 393 nm

## NCCCCCCCCCCCCN1C(=O)c2ccc3c4ccc5c6c(ccc(c7ccc(c2c37)C1=O)c64)C(=O)NC5=O
In CN(C)C=O
  emission maximum: 534 nm

## COc1ccc(OC)cc1
In C1CCCCC1
  emission maximum: 323.21 nm

## CC[N+](CC)=c1ccc2c(C(F)(F)F)c3c(oc-2c1)-c1ccc(N(C)C)cc1CC3
In CCO
  emission maximum: 425 nm
In ClCCl
  emission maximum: 713 nm
In O
  emission maximum: 716 nm

## CCC1=C(C)C2=C(c3c4ccccc4c(C)c4ccccc34)c3c(C)c(CC)c(C)n3[B-](F)(F)[N+]2=C1C
In CC#N
  emission maximum: 538 nm
In CCCCCC
  emission maximum: 540 nm
In CCO
  emission maximum: 538 nm
In CN(C)C=O
  emission maximum: 540 nm
In Cc1ccccc1
  emission maximum: 544 nm
In ClCCl
  emission maximum: 543 nm

Source: the Deep4Chem optical property database
